In ChEMBL document CHEMBL1146921, “Synthesis and antibacterial activity of 6-O-heteroarylcarbamoyl-11,12-lactoketolides” (2006):
Values after ≈ are worked out from the molar mass of the structure shown.

Legend:
Assay type in all cases: functional
Streptococcus pneumoniae [1] = assay: Antibacterial activity against erythromycin-susceptible Streptococcus pneumoniae ATCC 6301
Staphylococcus aureus [2] = assay: Antibacterial activity against Staphylococcus aureus Smith OC4172 in presence of 50% mouse serum
Staphylococcus aureus [3] = assay: Antibacterial activity against Staphylococcus aureus Smith OC4172
Streptococcus pneumoniae [4] = assay: Antibacterial activity against erythromycin-resistant Streptococcus pneumoniae OC4051
Streptococcus pneumoniae [5] = assay: Antibacterial activity against erythromycin-resistant Streptococcus pneumoniae OC4421
Haemophilus influenzae = assay: Antibacterial activity against Haemophilus influenzae OC4882

SMILES	MIC (Streptococcus pneumoniae [1]) [µg/mL]	MIC (Staphylococcus aureus [2]) [µg/mL]	MIC (Staphylococcus aureus [3]) [µg/mL]	MIC (Streptococcus pneumoniae [4]) [µg/mL]	MIC (Streptococcus pneumoniae [5]) [µg/mL]	MIC (Haemophilus influenzae) [µg/mL]
CC[C@H]1OC(=O)[C@H](C)C(=O)[C@H](C)[C@@H](O[C@@H]2O[C@H](C)C[C@H](N(C)C)[C@H]2O)[C@](C)(OC(=O)NC/C=C/c2ccc(-c3ncccn3)cc2)C[C@@H](C)C(=O)[C@H](C)[C@H]2NC(=O)O[C@@]21C	0.03 (≈ 0.0359 µM)	0.25	0.12 (≈ 0.144 µM)	0.06 (≈ 0.0718 µM)	0.06 (≈ 0.0718 µM)	4 (≈ 4.78 µM)
CC[C@H]1OC(=O)[C@H](C)C(=O)[C@H](C)[C@@H](O[C@@H]2O[C@H](C)C[C@H](N(C)C)[C@H]2O)[C@](C)(OC(=O)NC/C=C/c2ccc(-c3ccccc3)nc2)C[C@@H](C)C(=O)[C@H](C)[C@H]2CC(=O)O[C@@]21C		2	0.5 (≈ 0.6 µM)	0.5 (≈ 0.6 µM)	0.5 (≈ 0.6 µM)	8 (≈ 9.59 µM)
CC[C@H]1OC(=O)[C@H](C)C(=O)[C@H](C)[C@@H](O[C@@H]2O[C@H](C)C[C@H](N(C)C)[C@H]2O)[C@](C)(OC(=O)NC/C=C/c2ccc(-c3ncccn3)cc2)C[C@@H](C)C(=O)[C@H](C)[C@H]2CC(=O)O[C@@]21C	0.03 (≈ 0.0359 µM)	0.5	0.12 (≈ 0.144 µM)	0.06 (≈ 0.0719 µM)	0.25 (≈ 0.299 µM)	8 (≈ 9.58 µM)
CC[C@H]1OC(=O)[C@H](C)C(=O)[C@H](C)[C@@H](O[C@@H]2O[C@H](C)C[C@H](N(C)C)[C@H]2O)[C@](C)(OC(=O)NC/C=C/c2ccc3ncccc3c2)C[C@@H](C)C(=O)[C@H](C)[C@H]2CC(=O)O[C@@]21C	0.03 (≈ 0.0371 µM)	2	0.5 (≈ 0.619 µM)	0.12 (≈ 0.149 µM)	0.25 (≈ 0.309 µM)	2 (≈ 2.48 µM)
CC[C@H]1OC(=O)[C@H](C)C(=O)[C@H](C)[C@@H](O[C@@H]2O[C@H](C)C[C@H](N(C)C)[C@H]2O)[C@](C)(OC(=O)NCc2ccc(-c3ccccn3)cc2)C[C@@H](C)C(=O)[C@H](C)[C@H]2CC(=O)O[C@@]21C	0.03 (≈ 0.0371 µM)	8	1 (≈ 1.24 µM)	0.25 (≈ 0.309 µM)	0.5 (≈ 0.619 µM)	16 (≈ 19.8 µM)
CC[C@H]1OC(=O)[C@H](C)C(=O)[C@H](C)[C@@H](O[C@@H]2O[C@H](C)C[C@H](N(C)C)[C@H]2O)[C@](C)(OC(=O)NC/C=C/c2ccc(-c3ccccn3)cc2)C[C@@H](C)C(=O)[C@H](C)[C@H]2CC(=O)O[C@@]21C	0.06 (≈ 0.0719 µM)	2	0.5 (≈ 0.6 µM)	0.25 (≈ 0.3 µM)	0.5 (≈ 0.6 µM)	8 (≈ 9.59 µM)
CC[C@H]1OC(=O)[C@H](C)C(=O)[C@H](C)[C@@H](O[C@@H]2O[C@H](C)C[C@H](N(C)C)[C@H]2O)[C@](C)(OC(=O)NC/C=C/c2cccc(-c3ncccn3)c2)C[C@@H](C)C(=O)[C@H](C)[C@H]2CC(=O)O[C@@]21C	0.06 (≈ 0.0719 µM)	2	0.5 (≈ 0.599 µM)	0.25 (≈ 0.299 µM)	0.5 (≈ 0.599 µM)	4 (≈ 4.79 µM)
CC[C@H]1OC(=O)[C@H](C)[C@@H](O[C@H]2C[C@@](C)(OC)[C@@H](O)[C@H](C)O2)[C@H](C)[C@@H](O[C@@H]2O[C@H](C)C[C@H](N(C)C)[C@H]2O)[C@](C)(O)C[C@@H](C)C(=O)[C@H](C)[C@@H](O)[C@]1(C)O [ERYTHROMYCIN]	0.06 (≈ 0.0818 µM)	0.12	0.5 (≈ 0.681 µM)	> 16	4 (≈ 5.45 µM)	8 (≈ 10.9 µM)
CC[C@H]1OC(=O)[C@H](C)C(=O)[C@H](C)[C@@H](O[C@@H]2O[C@H](C)C[C@H](N(C)C)[C@H]2O)[C@](C)(OC)C[C@@H](C)C(=O)[C@H](C)[C@H]2N(CCCCn3cnc(-c4cccnc4)c3)C(=O)O[C@]12C [TELITHROMYCIN]	0.015 (≈ 0.0185 µM)	0.5	0.12 (≈ 0.148 µM)	0.06 (≈ 0.0739 µM)	0.12 (≈ 0.148 µM)	2 (≈ 2.46 µM)
CC[C@H]1OC(=O)[C@H](C)C(=O)[C@H](C)[C@@H](O[C@@H]2O[C@H](C)C[C@H](N(C)C)[C@H]2O)[C@](C)(OC(=O)NC/C=C/c2ccc(-c3ncccn3)cc2)C[C@@H](C)C(=O)[C@@H](C)[C@H]2CC(=O)O[C@@]21C	0.12 (≈ 0.144 µM)	16	2 (≈ 2.4 µM)	2 (≈ 2.4 µM)	1 (≈ 1.2 µM)	8 (≈ 9.58 µM)
CC[C@H]1OC(=O)[C@H](C)C(=O)[C@H](C)[C@@H](O[C@@H]2O[C@H](C)C[C@H](N(C)C)[C@H]2O)[C@](C)(OC(=O)NCc2cnc3ccccc3c2)C[C@@H](C)C(=O)[C@H](C)[C@H]2CC(=O)O[C@@]21C	0.06 (≈ 0.0767 µM)	4	0.5 (≈ 0.639 µM)	0.5 (≈ 0.639 µM)	0.5 (≈ 0.639 µM)	8 (≈ 10.2 µM)
CC[C@H]1OC(=O)[C@H](C)C(=O)[C@H](C)[C@@H](O[C@@H]2O[C@H](C)C[C@H](N(C)C)[C@H]2O)[C@](C)(OC(=O)NC/C=C/c2cccnc2)C[C@@H](C)C(=O)[C@H](C)[C@H]2CC(=O)O[C@@]21C	0.03 (≈ 0.0396 µM)	1	1 (≈ 1.32 µM)	2 (≈ 2.64 µM)	0.5 (≈ 0.66 µM)	4 (≈ 5.28 µM)
CC[C@H]1OC(=O)[C@H](C)C(=O)[C@H](C)[C@@H](O[C@@H]2O[C@H](C)C[C@H](N(C)C)[C@H]2O)[C@](C)(OC(=O)NCc2ccc3ncccc3c2)C[C@@H](C)C(=O)[C@H](C)[C@H]2CC(=O)O[C@@]21C	0.06 (≈ 0.0767 µM)	4	1 (≈ 1.28 µM)	2 (≈ 2.56 µM)	0.5 (≈ 0.639 µM)	8 (≈ 10.2 µM)
CC[C@H]1OC(=O)[C@H](C)C(=O)[C@H](C)[C@@H](O[C@@H]2O[C@H](C)C[C@H](N(C)C)[C@H]2O)[C@](C)(OC(=O)NC/C=C/c2cnc3ccccc3c2)C[C@@H](C)C(=O)[C@H](C)[C@H]2CC(=O)O[C@@]21C	≤ 0.015	2	0.5 (≈ 0.619 µM)	0.12 (≈ 0.149 µM)	0.25 (≈ 0.309 µM)	8 (≈ 9.9 µM)
CC[C@H]1OC(=O)[C@H](C)C(=O)[C@H](C)[C@@H](O[C@@H]2O[C@H](C)C[C@H](N(C)C)[C@H]2O)[C@](C)(OC(=O)NC/C=C/c2ccc3nccnc3c2)C[C@@H](C)C(=O)[C@H](C)[C@H]2CC(=O)O[C@@]21C	0.03 (≈ 0.0371 µM)	2	0.5 (≈ 0.618 µM)	0.25 (≈ 0.309 µM)	0.5 (≈ 0.618 µM)	4 (≈ 4.94 µM)
CC[C@H]1OC(=O)[C@H](C)C(=O)[C@H](C)[C@@H](O[C@@H]2O[C@H](C)C[C@H](N(C)C)[C@H]2O)[C@](C)(OC(=O)NC/C=C/c2cncc3ccccc23)C[C@@H](C)C(=O)[C@H](C)[C@H]2CC(=O)O[C@@]21C	≤ 0.015	4	0.5 (≈ 0.619 µM)	0.25 (≈ 0.309 µM)	0.25 (≈ 0.309 µM)	4 (≈ 4.95 µM)
CC[C@H]1OC(=O)[C@H](C)C(=O)[C@H](C)[C@@H](O[C@@H]2O[C@H](C)C[C@H](N(C)C)[C@H]2O)[C@](C)(OC(=O)NC/C=C/c2ccc3cccnc3c2)C[C@@H](C)C(=O)[C@H](C)[C@H]2CC(=O)O[C@@]21C	0.03 (≈ 0.0371 µM)	4	0.25 (≈ 0.309 µM)	0.12 (≈ 0.149 µM)	0.25 (≈ 0.309 µM)	2 (≈ 2.48 µM)
